Laboratory results published in US20080125424A1, “Derivatives of urea and related diamines, methods for their manufacture, and uses therefor” (priority 2006, published 2008).

What follows are compounds tested against T1, human parathyroid cell Ca2+ receptor (hPCaR) (Homo sapiens, UniProt P41180) (assay: [Ca2+]i fluorescence assay in HEK 293 4.0-7 cells expressing hPCaR). Settings: buffer with 1 mM CaCl2.
T1 construct: expressed in transfected cells
T1 sequence (P41180 20-1078): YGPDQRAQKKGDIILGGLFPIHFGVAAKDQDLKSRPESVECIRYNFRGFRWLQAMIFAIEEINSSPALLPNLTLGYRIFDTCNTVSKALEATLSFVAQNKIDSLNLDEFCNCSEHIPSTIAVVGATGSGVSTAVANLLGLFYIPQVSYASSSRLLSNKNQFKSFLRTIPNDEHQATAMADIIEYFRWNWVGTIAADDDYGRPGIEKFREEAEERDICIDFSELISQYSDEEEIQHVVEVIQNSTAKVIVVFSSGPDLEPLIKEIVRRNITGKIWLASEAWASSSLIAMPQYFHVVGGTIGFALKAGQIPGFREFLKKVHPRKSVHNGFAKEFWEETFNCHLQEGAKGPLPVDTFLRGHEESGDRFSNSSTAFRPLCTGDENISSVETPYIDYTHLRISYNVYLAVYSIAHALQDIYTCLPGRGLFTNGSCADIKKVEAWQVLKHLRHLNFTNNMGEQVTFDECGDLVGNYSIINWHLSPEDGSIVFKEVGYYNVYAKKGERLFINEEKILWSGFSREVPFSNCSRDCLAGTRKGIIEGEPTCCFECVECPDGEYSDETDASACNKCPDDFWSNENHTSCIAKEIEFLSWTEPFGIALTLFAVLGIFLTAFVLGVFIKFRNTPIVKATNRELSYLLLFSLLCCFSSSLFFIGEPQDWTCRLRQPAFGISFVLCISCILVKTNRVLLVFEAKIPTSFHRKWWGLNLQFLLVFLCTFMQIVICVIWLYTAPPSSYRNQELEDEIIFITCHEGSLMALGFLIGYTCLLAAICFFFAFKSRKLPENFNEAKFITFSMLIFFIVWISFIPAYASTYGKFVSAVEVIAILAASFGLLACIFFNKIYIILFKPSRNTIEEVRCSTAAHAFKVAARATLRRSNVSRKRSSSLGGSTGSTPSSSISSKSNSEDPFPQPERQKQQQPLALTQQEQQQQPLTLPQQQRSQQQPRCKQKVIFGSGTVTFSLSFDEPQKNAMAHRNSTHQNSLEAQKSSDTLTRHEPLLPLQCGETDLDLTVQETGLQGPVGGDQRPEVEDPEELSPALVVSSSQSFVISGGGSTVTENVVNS
Format: cell-based
Protocol: The activities of the compounds of the present invention on calcium receptors were measured. In one embodiment, the measurement was performed in accordance with the method described in Example 4 of Nemeth et al., PCT/US95/13704 (International Publication No. WO96/12697) herein incorporated by reference.
A 4.0-kb NotI-HindIII fragment of the human parathyroid cell Ca^2+ receptor (hPCaR) cDNA was subcloned into the mammalian expression vector pCEP4 (Invitrogen) containing the hygromycin-resistant gene as a selectable marker. This plasmid was transfected into HEK 293 cells by calcium phosphate precipitation. Transfected cells were grown in Dulbecco's modified Eagle's medium containing 10% fetal bovine serum and hygromycin (200 μg/mL). Hygromycin-resistant colonies were subcloned and assayed for hPCaR mRNA by solution hybridization using a ^32P-labeled RNA probe complementary to the (4.0 kb) hPCaR sequence (Garrett, et al., J. Biol. Chem. 270, 12919-12925 (1995)). Clone 7 was used to assess the effects of compounds on [Ca^2+]i. This stably transfected cell line was termed HEK 293 4.0-7. For measurements of [Ca^2+]i, the cells were recovered from tissue culture flasks by brief treatment with Versene (Invitrogen; Containing 0.2 g/L EDTA.4Na in phosphate-buffered saline) and then seeded in collagen coated 384-well plates (BD Biosciences) at 20K cells per well in the growth media (same as above). Cells were grown in 37c TC incubator overnight. Then, the media was discarded and cells were loaded with 1× dye from Ca^2+ Assay Kit I (BD Biosciences) in parathyroid cell buffer (126 mM NaCl, 4 mM KCl, 1 mM MgSO4, 0.7 mM K2HPO4/KH2PO4, 20 mM HEPES.NaOH (pH 7.45)) containing 0.5% BSA and 1 mM CaCl2. Cells were loaded at room temperature for 90 minutes. Each test compound was added to the cells and the fluorescence was recorded by using excitation and emission wavelengths of 485 and 530 nm, respectively.

| Compound | EC50 [nM] |
| --- | --- |
| CS(=O)(=O)Nc1ccc(-c2csc(NC(=O)N(CCCC(=O)N[C@@H]3CCCNC3)CCC(c3ccccc3)c3ccccc3)n2)cc1 [Example 67, (R)-1-(3,3-diphenylpropyl)-3-(4-(4-(methylsulfonamido)phenyl)thiazol-2-yl)-1-(4-oxo-4-(piperidin-3-ylamino)butyl)urea] | < 100 |
| CS(=O)(=O)Nc1ccc(-c2csc(NC(=O)N(CCCC(=O)NC3CCNCC3)CCC(c3ccccc3)c3ccccc3)n2)cc1 [Example 70, 1-(3,3-diphenylpropyl)-3-(4-(4-(methylsulfonamido)phenyl)thiazol-2-yl)-1-(4-oxo-4-(piperidin-4-ylamino)butyl)urea] | < 100 |
| O=C(CCCN(CCC(c1ccccc1)c1ccccc1)C(=O)Nc1nc2ccccc2s1)N[C@@H]1CCCNC1 [Example 71, (R)-3-(benzo[d]thiazol-2-yl)-1-(3,3-diphenylpropyl)-1-(4-oxo-4-(piperidin-3-ylamino)butyl)urea] | < 100 |
| CS(=O)(=O)c1ccc(-c2nc(NC(=O)N(CCCC(=O)O)CCC(c3ccccc3)c3ccccc3)sc2Cl)cc1 [Example 72, 4-(3-(5-chloro-4-(4-(methylsulfonyl)phenyl)thiazol-2-yl)-1-(3,3-diphenylpropyl)ureido)butanoic acid] | < 100 |
| CS(=O)(=O)Nc1ccc(-c2nc(NC(=O)N(CCCC(=O)O)CCC(c3ccccc3)c3ccccc3)sc2Cl)cc1 [Example 73, 4-(3-(5-chloro-4-(4-(methylsulfonamido)phenyl)thiazol-2-yl)-1-(3,3-diphenylpropyl)ureido)butanoic acid] | < 100 |
| O=C(CCCN(CCC(c1ccccc1)c1ccccc1)C(=O)Nc1nc2ccccc2s1)N[C@H]1CCCNC1 [Example 74, (S)-3-(benzo[d]thiazol-2-yl)-1-(3,3-diphenylpropyl)-1-(4-oxo-4-(piperidin-3-ylamino)butyl)urea] | < 100 |
| O=C(CCCN(CCC(c1ccccc1)c1ccccc1)C(=O)Nc1nc2ccccc2s1)NC1CCNCC1 [Example 75, 3-(benzo[d]thiazol-2-yl)-1-(3,3-diphenylpropyl)-1-(4-oxo-4-(piperidin-4-ylamino)butyl)urea] | < 100 |
| CS(=O)(=O)Nc1ccc(-c2csc(NC(=O)N(CCC(N)=O)CCC(c3ccccc3)c3ccccc3)n2)cc1 [Example 77, 1-(3-amino-3-oxopropyl)-1-(3,3-diphenylpropyl)-3-(4-(4-(methylsulfonamido)phenyl)thiazol-2-yl)urea] | < 100 |
| O=C(CCCN(CCC(c1ccccc1)c1ccccc1)C(=O)Nc1nc2ccccc2s1)NCc1ccccc1 [Example 86, 3-(benzo[d]thiazol-2-yl)-1-(4-(benzylamino)-4-oxobutyl)-1-(3,3-diphenylpropyl)urea] | < 100 |
| CN(C)C(=O)CCCN(CCC(c1ccccc1)c1ccccc1)C(=O)Nc1nc2ccccc2s1 [Example 89, 3-(benzo[d]thiazol-2-yl)-1-(4-(dimethylamino)-4-oxobutyl)-1-(3,3-diphenylpropyl)urea] | < 100 |
| N#Cc1ccc(-c2nc(NC(=O)N(CCCC(=O)O)CCC(c3ccccc3)c3ccccc3)sc2Cl)cc1 [Example 92, 4-(3-(5-chloro-4-(4-cyanophenyl)thiazol-2-yl)-1-(3,3-diphenylpropyl)ureido)butanoic acid] | 100 to 1000 |

Second part, the compound after the results:

| EC50 [nM] | Compound |
| --- | --- |
| < 100 | CS(=O)(=O)Nc1ccc(-c2csc(NC(=O)N(CCCC(N)=O)CCC(c3ccccc3)c3ccccc3)n2)cc1 [Example 68, 1-(4-amino-4-oxobutyl)-1-(3,3-diphenylpropyl)-3-(4-(4-(methylsulfonamido)phenyl)thiazol-2-yl)urea] |
| < 100 | CC(CN(CCC(c1ccccc1)c1ccccc1)C(=O)Nc1nc(-c2ccccc2)cs1)C(=O)O (stereo not shown) [Example 69, 3-(1-(3,3-diphenylpropyl)-3-(4-phenylthiazol-2-yl)ureido)-2-methylpropanoic acid] |
| < 100 | O=C(CCCN(CCC(c1ccccc1)c1ccccc1)C(=O)Nc1nc(-c2ccccc2)cs1)N[C@@H]1CCCNC1 [Example 76, (R)-1-(3,3-diphenylpropyl)-1-(4-oxo-4-(piperidin-3-ylamino)butyl)-3-(4-phenylthiazol-2-yl)urea] |
| < 100 | O=C(CCCN(CCC(c1ccccc1)c1ccccc1)C(=O)Nc1nc(-c2ccccc2)cs1)N[C@H]1CCCNC1 [Example 78, (S)-1-(3,3-diphenylpropyl)-1-(4-oxo-4-(piperidin-3-ylamino)butyl)-3-(4-phenylthiazol-2-yl)urea] |
| < 100 | CS(=O)(=O)c1ccc(-c2csc(NC(=O)N(CCCC(=O)O)CCC(c3ccccc3)c3ccccc3)n2)cc1 [Example 79, 4-(1-(3,3-diphenylpropyl)-3-(4-(4-(methylsulfonyl)phenyl)thiazol-2-yl)ureido)butanoic acid] |
| < 100 | NC(=O)CCCN(CCC(c1ccccc1)c1ccccc1)C(=O)Nc1nc2ccccc2s1 [Example 80, 1-(4-amino-4-oxobutyl)-3-(benzo[d]thiazol-2-yl)-1-(3,3-diphenylpropyl)urea] |
| < 100 | NC(=O)CCCN(CCC(c1ccccc1)c1ccccc1)C(=O)Nc1nc(-c2ccccc2)c(Cl)s1 [Example 81, 1-(4-amino-4-oxobutyl)-3-(5-chloro-4-phenylthiazol-2-yl)-1-(3,3-diphenylpropyl)urea] |
| < 100 | O=C(CCCN(CCC(c1ccccc1)c1ccccc1)C(=O)Nc1nc2ccccc2s1)N1CCNCC1 [Example 82, 3-(benzo[d]thiazol-2-yl)-1-(3,3-diphenylpropyl)-1-(4-oxo-4-(piperazin-1-yl)butyl)urea] |
| < 100 | O=C(O)CCCN(CCC(c1ccccc1)c1ccccc1)C(=O)Nc1nc(-c2ccccc2)c(Cl)s1 [Example 83, 4-(3-(5-chloro-4-phenylthiazol-2-yl)-1-(3,3-diphenylpropyl)ureido)butanoic acid] |
| < 100 | CC(=O)N1CCN(C(=O)CCCN(CCC(c2ccccc2)c2ccccc2)C(=O)Nc2nc(-c3ccccc3)cs2)CC1 [Example 84, 1-(4-(4-acetylpiperazin-1-yl)-4-oxobutyl)-1-(3,3-diphenylpropyl)-3-(4-phenylthiazol-2-yl)urea] |
| < 100 | CCNC(=O)CCCN(CCC(c1ccccc1)c1ccccc1)C(=O)Nc1nc2ccccc2s1 [Example 85, 3-(benzo[d]thiazol-2-yl)-1-(3,3-diphenylpropyl)-1-(4-(ethylamino)-4-oxobutyl)urea] |
| < 100 | CN(C)C(=O)N1CCN(C(=O)CCCN(CCC(c2ccccc2)c2ccccc2)C(=O)Nc2nc3ccccc3s2)CC1 [Example 87, 3-(benzo[d]thiazol-2-yl)-1-(4-(4-(dimethylcarbamoyl)piperazin-1-yl)-4-oxobutyl)-1-(3,3-diphenylpropyl)urea] |
| 100 to 1000 | C[C@H]1CN(C(=O)CCCN(CCC(c2ccccc2)c2ccccc2)C(=O)Nc2nc(-c3ccccc3)cs2)CCN1 [Example 90, (S)-1-(3,3-diphenylpropyl)-1-(4-(3-methylpiperazin-1-yl)-4-oxobutyl)-3-(4-phenylthiazol-2-yl)urea] |
| 100 to 1000 | C[C@@H]1CNCCN1C(=O)CCCN(CCC(c1ccccc1)c1ccccc1)C(=O)Nc1nc(-c2ccccc2)cs1 [Example 91, (R)-1-(3,3-diphenylpropyl)-1-(4-(2-methylpiperazin-1-yl)-4-oxobutyl)-3-(4-phenylthiazol-2-yl)urea] |
